Assay results: patent publication US20260297070A1, “CYCLIC [COMPOUND LEFT OUT] WRN INHIBITORS” (Nimbus Wadjet, Inc., priority 2023, published 2026)

Target: T1, human Werner helicase (WRN-BV08, Uniprot Q14191, amino acids 517-1235 with L1074F point mutation) (Homo sapiens, UniProt Q14191, L1074F)
T1 construct: Uniprot Q14191, amino acids 517-1235 with L1074F point mutation; TEV-cleavable 8×His (C, cleaved yes); made in house; host or cells: Sf9 insect cells (baculovirus)
Experiment: WRN (BV08) ADP-Glo Assay
Type: biochemical
Conditions: 0.15 nM WRN, 5 μM ATP, 0.1 nM DNA duplex, 15 min preincubation, 60 min at 25° C., pH 7.5, 1% DMSO; read-out: ADP-Glo_hWRN_IC50
Method in brief: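 ADP produced by WRN helicase fragment 517-1235 (L1074F, baculovirus/Sf9, untagged) read by ADP-Glo luminescence after 60 min at 25 °C with 5 μM ATP and 0.1 nM duplex DNA, following 15 min compound preincubation. Final enzyme 0.15 nM in Bicine pH 7.5 buffer, 1% DMSO; 20 μM NSC-617145 defined full inhibition.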

T1 sequence (Q14191 with tags, fused parts or gaps L1074F limits assumed): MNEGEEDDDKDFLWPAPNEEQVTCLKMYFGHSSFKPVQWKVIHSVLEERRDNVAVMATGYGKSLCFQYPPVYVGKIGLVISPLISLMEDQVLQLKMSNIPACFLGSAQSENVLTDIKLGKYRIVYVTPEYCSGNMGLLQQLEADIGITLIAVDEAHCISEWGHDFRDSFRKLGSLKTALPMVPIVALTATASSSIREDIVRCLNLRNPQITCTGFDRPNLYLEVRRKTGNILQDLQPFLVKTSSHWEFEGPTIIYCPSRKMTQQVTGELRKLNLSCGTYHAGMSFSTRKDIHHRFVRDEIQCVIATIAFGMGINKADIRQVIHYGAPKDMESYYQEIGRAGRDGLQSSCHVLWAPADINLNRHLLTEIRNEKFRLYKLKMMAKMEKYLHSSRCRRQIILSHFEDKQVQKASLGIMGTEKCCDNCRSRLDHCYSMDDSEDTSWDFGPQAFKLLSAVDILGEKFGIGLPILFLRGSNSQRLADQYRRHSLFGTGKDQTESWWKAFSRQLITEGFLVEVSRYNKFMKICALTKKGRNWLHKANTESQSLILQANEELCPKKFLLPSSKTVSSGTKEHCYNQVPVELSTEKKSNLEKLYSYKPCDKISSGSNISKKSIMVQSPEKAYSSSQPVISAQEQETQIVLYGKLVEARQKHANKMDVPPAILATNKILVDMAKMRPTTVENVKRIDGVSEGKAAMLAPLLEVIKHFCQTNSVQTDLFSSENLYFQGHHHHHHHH

IC50, > 50 µM:
CC(=O)N(C)C(C(=O)N(Cc1ccncc1)C1C=CS(=O)(=O)C1)c1ccc(-n2cccc2)cc1 (stereo not shown) [I-377, N-(1,1-dioxo-2,3-dihydro-1lambda6-thiophen-3-yl)-2-(N-methylacetamido)-N-[(pyridin-4-yl)methyl]-2-[4-(1H-pyrrol-1-yl)phenyl]acetamide]
COc1cc(CN(C(=O)Cc2cnn(-c3ccc(Cl)cc3)c2)C2C=CS(=O)(=O)C2)ccn1 (stereo not shown) [I-379, 2-[1-(4-chlorophenyl)-1H-pyrazol-4-yl]-N-(1,1-dioxo-2,3-dihydro-1lambda6-thiophen-3-yl)-N-[(2-methoxypyridin-4-yl)methyl]acetamide]
COc1cc(CN(C(=O)Cc2ccn(-c3ccc(Cl)cc3)n2)C2C=CS(=O)(=O)C2)ccn1 (stereo not shown) [I-380, 2-[1-(4-chlorophenyl)-1H-pyrazol-3-yl]-N-(1,1-dioxo-2,3-dihydro-1lambda6-thiophen-3-yl)-N-[(2-methoxypyridin-4-yl)methyl]acetamide]
COc1cc(CN(C(=O)Cc2ccc(-n3ccccc3=O)cc2F)C2C=CS(=O)(=O)C2)ccn1 (stereo not shown) [I-381, N-(1,1-dioxo-2,3-dihydro-1lambda6-thiophen-3-yl)-2-[2-fluoro-4-(2-oxo-1,2-dihydropyridin-1-yl)phenyl]-N-[(2-methoxypyridin-4-yl)methyl]acetamide]
O=C(Cc1ccc(-n2cccc2CCO)cc1)N(Cc1ccccc1)C1C=CS(=O)(=O)C1 (stereo not shown) [I-383, N-benzyl-N-(1,1-dioxo-2,3-dihydro-1lambda6-thiophen-3-yl)-2-{4-[2-(2-hydroxyethyl)-1H-pyrrol-1-yl]phenyl}acetamide]
COCCc1cccn1-c1ccc(CC(=O)N(Cc2ccccc2)C2C=CS(=O)(=O)C2)cc1 (stereo not shown) [I-384, N-benzyl-N-(1,1-dioxo-2,3-dihydro-1lambda6-thiophen-3-yl)-2-{4-[2-(2-methoxyethyl)-1H-pyrrol-1-yl]phenyl}acetamide]
COc1cc(CN(C(=O)C2CN(C)c3cc(-c4ccc(F)cc4)ccc32)C2C=CS(=O)(=O)C2)ccn1 (stereo not shown) [I-385, N-(1,1-dioxo-2,3-dihydro-1lambda6-thiophen-3-yl)-6-(4-fluorophenyl)-N-[(2-methoxypyridin-4-yl)methyl]-1-methyl-2,3-dihydro-1H-indole-3-carboxamide]
N#CCCN(C(=O)Cc1ccc(-c2ccc(F)cc2)cc1)C1C=CS(=O)(=O)C1 (stereo not shown) [I-386, N-(2-cyanoethyl)-N-(1,1-dioxo-2,3-dihydro-1lambda6-thiophen-3-yl)-2-{4′-fluoro-[1,1′-biphenyl]-4-yl}acetamide]
CN(C)S(=O)(=O)c1ccc(CC(=O)N(Cc2ccncc2)C2C=CS(=O)(=O)C2)cc1 (stereo not shown) [I-388, 2-[4-(dimethylsulfamoyl)phenyl]-N-(1,1-dioxo-2,3-dihydro-1lambda6-thiophen-3-yl)-N-[(pyridin-4-yl)methyl]acetamide]
O=C(Cc1ccc(C(F)(F)F)cn1)N(Cc1ccncc1)C1C=CS(=O)(=O)C1 (stereo not shown) [I-389, N-(1,1-dioxo-2,3-dihydro-1lambda6-thiophen-3-yl)-N-[(pyridin-4-yl)methyl]-2-[5-(trifluoromethyl)pyridin-2-yl]acetamide]
O=C(Cc1ccn(-c2ccccc2)n1)N(Cc1ccncc1)C1C=CS(=O)(=O)C1 (stereo not shown) [I-390, N-(1,1-dioxo-2,3-dihydro-1lambda6-thiophen-3-yl)-2-(1-phenyl-1H-pyrazol-3-yl)-N-[(pyridin-4-yl)methyl]acetamide]
O=C(CCc1nc2cc(Cl)ccc2s1)N(Cc1ccncc1)C1C=CS(=O)(=O)C1 (stereo not shown) [I-391, 3-(5-chloro-1,3-benzothiazol-2-yl)-N-(1,1-dioxo-2,3-dihydro-1lambda6-thiophen-3-yl)-N-[(pyridin-4-yl)methyl]propanamide]
O=C(Cc1cccc(CC(F)(F)F)c1)N(Cc1ccncc1)C1C=CS(=O)(=O)C1 (stereo not shown) [I-393, N-(1,1-dioxo-2,3-dihydro-1lambda6-thiophen-3-yl)-N-[(pyridin-4-yl)methyl]-2-[3-(2,2,2-trifluoroethyl)phenyl]acetamide]
O=C(Cc1ccn(-c2ccc(F)cc2)n1)N(Cc1ccncc1)C1C=CS(=O)(=O)C1 (stereo not shown) [I-394, N-(1,1-dioxo-2,3-dihydro-1lambda6-thiophen-3-yl)-2-[1-(4-fluorophenyl)-1H-pyrazol-3-yl]-N-[(pyridin-4-yl)methyl]acetamide]
O=C(CCc1cc2ccccc2[nH]1)N(Cc1ccncc1)C1C=CS(=O)(=O)C1 (stereo not shown) [I-396, N-(1,1-dioxo-2,3-dihydro-1lambda6-thiophen-3-yl)-3-(1H-indol-2-yl)-N-[(pyridin-4-yl)methyl]propanamide]
O=C(N[C@H](Cc1c[nH]c2ccccc12)C(=O)N(Cc1ccncc1)C1C=CS(=O)(=O)C1)C1CC1 (stereo partly drawn) [I-397, (2R)-2-(cyclopropylformamido)-N-(1,1-dioxo-2,3-dihydro-1lambda6-thiophen-3-yl)-3-(1H-indol-3-yl)-N-[(pyridin-4-yl)methyl]propanamide]
COc1cc(CN(C(=O)C2Cc3cc(-c4ccc(F)cc4)ccc3O2)C2C=CS(=O)(=O)C2)ccn1 (stereo not shown) [I-399, N-(1,1-dioxo-2,3-dihydro-1lambda6-thiophen-3-yl)-5-(4-fluorophenyl)-N-[(2-methoxypyridin-4-yl)methyl]-2,3-dihydro-1-benzofuran-2-carboxamide]
O=C(Cc1ccc(-c2ccc(F)cc2)c(C(F)F)c1)N(Cc1ccncc1)C1C=CS(=O)(=O)C1 (stereo not shown) [I-401, 2-[2-(difluoromethyl)-4′-fluoro-[1,1′-biphenyl]-4-yl]-N-(1,1-dioxo-2,3-dihydro-1lambda6-thiophen-3-yl)-N-[(pyridin-4-yl)methyl]acetamide]
O=C(Cc1ccc(-n2cccc2)cc1)N(Cc1nc(C2CC2)cs1)[C@H]1C=CS(=O)(=O)C1 [I-402, N-[(4-cyclopropyl-1,3-thiazol-2-yl)methyl]-N-[(3S)-1,1-dioxo-2,3-dihydro-1lambda6-thiophen-3-yl]-2-[4-(1H-pyrrol-1-yl)phenyl]acetamide]
O=C(Cn1cc(-c2ccccc2)nn1)N(Cc1ccncc1)C1C=CS(=O)(=O)C1 (stereo not shown) [I-403, N-(1,1-dioxo-2,3-dihydro-1lambda6-thiophen-3-yl)-2-(4-phenyl-1H-1,2,3-triazol-1-yl)-N-[(pyridin-4-yl)methyl]acetamide]
O=C(Cc1cnn(-c2ccccc2)n1)N(Cc1ccncc1)C1C=CS(=O)(=O)C1 (stereo not shown) [I-406, N-(1,1-dioxo-2,3-dihydro-1lambda6-thiophen-3-yl)-2-(2-phenyl-2H-1,2,3-triazol-4-yl)-N-[(pyridin-4-yl)methyl]acetamide]
O=C(Cn1cc(C2CCOC2)cn1)N(Cc1ccncc1)C1C=CS(=O)(=O)C1 (stereo not shown) [I-407, N-(1,1-dioxo-2,3-dihydro-1lambda6-thiophen-3-yl)-2-[4-(oxolan-3-yl)-1H-pyrazol-1-yl]-N-[(pyridin-4-yl)methyl]acetamide]
O=C(Cn1cc(Br)cn1)N(Cc1ccncc1)C1C=CS(=O)(=O)C1 (stereo not shown) [I-408, 2-(4-bromo-1H-pyrazol-1-yl)-N-(1,1-dioxo-2,3-dihydro-1lambda6-thiophen-3-yl)-N-[(pyridin-4-yl)methyl]acetamide]
O=C(Cc1cnn(-c2ccccc2)c1)N(Cc1ccncc1)C1C=CS(=O)(=O)C1 (stereo not shown) [I-409, N-(1,1-dioxo-2,3-dihydro-1lambda6-thiophen-3-yl)-2-(1-phenyl-1H-pyrazol-4-yl)-N-[(pyridin-4-yl)methyl]acetamide]
O=C(Cc1coc(-c2ccc(F)c(F)c2)n1)N(Cc1ccncc1)C1C=CS(=O)(=O)C1 (stereo not shown) [I-410, 2-[2-(3,4-difluorophenyl)-1,3-oxazol-4-yl]-N-(1,1-dioxo-2,3-dihydro-1lambda6-thiophen-3-yl)-N-[(pyridin-4-yl)methyl]acetamide]
COc1ccc2[nH]c(CC(=O)N(Cc3ccncc3)C3C=CS(=O)(=O)C3)cc2c1 (stereo not shown) [I-412, N-(1,1-dioxo-2,3-dihydro-1lambda6-thiophen-3-yl)-2-(5-methoxy-1H-indol-2-yl)-N-[(pyridin-4-yl)methyl]acetamide]
O=C(CCc1[nH]nc2ccccc12)N(Cc1ccncc1)C1C=CS(=O)(=O)C1 (stereo not shown) [I-413, N-(1,1-dioxo-2,3-dihydro-1lambda6-thiophen-3-yl)-3-(2H-indazol-3-yl)-N-[(pyridin-4-yl)methyl]propanamide]
O=C(Cc1ccc2c[nH]nc2c1)N(Cc1ccncc1)C1C=CS(=O)(=O)C1 (stereo not shown) [I-414, N-(1,1-dioxo-2,3-dihydro-1lambda6-thiophen-3-yl)-2-(2H-indazol-6-yl)-N-[(pyridin-4-yl)methyl]acetamide]
O=C(CC1CCC(c2ccccc2)CC1)N(Cc1ccncc1)C1C=CS(=O)(=O)C1 (stereo not shown) [I-416, N-(1,1-dioxo-2,3-dihydro-1lambda6-thiophen-3-yl)-2-(4-phenylcyclohexyl)-N-[(pyridin-4-yl)methyl]acetamide]
O=C(Cc1c[nH]c2cc(Cl)ccc12)N(Cc1ccncc1)C1C=CS(=O)(=O)C1 (stereo not shown) [I-417, 2-(6-chloro-1H-indol-3-yl)-N-(1,1-dioxo-2,3-dihydro-1lambda6-thiophen-3-yl)-N-[(pyridin-4-yl)methyl]acetamide]
Cc1c(CC(=O)N(Cc2ccncc2)C2C=CS(=O)(=O)C2)c(=O)[nH]c2ccccc12 (stereo not shown) [I-418, N-(1,1-dioxo-2,3-dihydro-1lambda6-thiophen-3-yl)-2-(4-methyl-2-oxo-1,2-dihydroquinolin-3-yl)-N-[(pyridin-4-yl)methyl]acetamide]
